Experiments:
[1] = molecular target: sGC in the CHO reporter cell (Rattus norvegicus (Rat), UniProt P20595); assay: Action at a recombinant guanylate cyclase reporter cell line; assay type: cell-based; conditions: CHO reporter cell in vitro
Description: The cellular action of the compounds according to the invention is determined at a recombinant guanylate cyclase reporter cell line, as described in F. Wunder et al., Anal. Biochem. 339, 104-112 (2005).

[2] = molecular target: Haem-containing sGC (recombinant soluble guanylate cyclase) (Rattus norvegicus (Rat), UniProt P20595); assay: Stimulation of recombinant soluble guanylate cyclase (sGC) in vitro, haem-containing enzyme; assay type: biochemical; conditions: for Stimulation (x-fold) of recombinant sGC, haem-containing sGC, basal: n = 5
Sequence of Haem-containing sGC (recombinant soluble guanylate cyclase) (P20595 whole entry): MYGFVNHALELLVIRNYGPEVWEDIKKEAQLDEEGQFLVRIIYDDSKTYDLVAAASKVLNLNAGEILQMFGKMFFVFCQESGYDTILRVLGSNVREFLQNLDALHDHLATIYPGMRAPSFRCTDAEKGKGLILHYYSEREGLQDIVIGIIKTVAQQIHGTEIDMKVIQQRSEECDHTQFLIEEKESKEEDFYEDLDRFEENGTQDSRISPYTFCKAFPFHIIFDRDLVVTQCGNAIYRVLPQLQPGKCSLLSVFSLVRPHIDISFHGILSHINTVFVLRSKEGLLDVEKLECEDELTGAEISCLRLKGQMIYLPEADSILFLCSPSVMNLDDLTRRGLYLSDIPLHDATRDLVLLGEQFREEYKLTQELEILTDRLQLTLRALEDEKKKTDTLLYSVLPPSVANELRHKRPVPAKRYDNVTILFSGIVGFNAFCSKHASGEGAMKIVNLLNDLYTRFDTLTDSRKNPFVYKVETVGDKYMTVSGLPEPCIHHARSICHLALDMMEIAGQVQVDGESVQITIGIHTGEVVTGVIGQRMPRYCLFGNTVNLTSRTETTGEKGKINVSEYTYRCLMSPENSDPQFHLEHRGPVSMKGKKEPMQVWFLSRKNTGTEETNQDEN
Sequence of Haem-containing sGC (recombinant soluble guanylate cyclase) (P19686 whole entry partner): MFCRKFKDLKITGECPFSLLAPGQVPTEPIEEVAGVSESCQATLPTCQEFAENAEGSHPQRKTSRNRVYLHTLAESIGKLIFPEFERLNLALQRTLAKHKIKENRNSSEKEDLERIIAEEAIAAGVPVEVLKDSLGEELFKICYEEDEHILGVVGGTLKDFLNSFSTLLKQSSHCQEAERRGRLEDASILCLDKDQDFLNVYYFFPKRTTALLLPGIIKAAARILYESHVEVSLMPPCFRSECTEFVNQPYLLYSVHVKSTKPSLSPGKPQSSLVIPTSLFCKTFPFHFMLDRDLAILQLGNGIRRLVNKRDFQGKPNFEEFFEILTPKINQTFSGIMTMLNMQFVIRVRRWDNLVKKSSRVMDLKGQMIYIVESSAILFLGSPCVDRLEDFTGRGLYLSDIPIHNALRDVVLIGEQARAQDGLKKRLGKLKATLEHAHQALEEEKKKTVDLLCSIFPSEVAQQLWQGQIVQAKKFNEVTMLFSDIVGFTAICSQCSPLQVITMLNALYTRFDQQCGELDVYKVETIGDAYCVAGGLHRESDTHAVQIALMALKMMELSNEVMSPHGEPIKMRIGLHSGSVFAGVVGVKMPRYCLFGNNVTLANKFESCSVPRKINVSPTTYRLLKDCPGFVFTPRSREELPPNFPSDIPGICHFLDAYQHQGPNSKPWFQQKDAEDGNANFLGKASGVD
Description: Hoenicka, E. M. Becker, H. Apeler, T. Sirichoke, H. Schroeder, R. Gerzer and J.-P. Stasch, “Purified soluble guanylyl cyclase expressed in a baculovirus/Sf9 system: Stimulation by YC-1, nitric oxide, and carbon oxide”, J. Mol. Med. 77 (1999), 14-23. The haem-free guanylate cyclase is obtained by adding Tween 20 to the sample buffer (0.5% in the final concentration).
(§1) The activation of sGC by a test substance is reported as x-fold stimulation of the basal activity.

[3] = molecular target: Haem-free sGC (recombinant soluble guanylate cyclase) (Rattus norvegicus (Rat), UniProt P20595); assay: Stimulation of recombinant soluble guanylate cyclase (sGC) in vitro, haem-free enzyme; assay type: biochemical; conditions: haem-free (0.5% Tween 20), n = 5
Sequence of Haem-free sGC (recombinant soluble guanylate cyclase) (P20595 whole entry): as the sequence (P20595 whole entry) above
Sequence of Haem-free sGC (recombinant soluble guanylate cyclase) (P19686 whole entry partner): as the sequence (P19686 whole entry partner) above
Description: Investigations on the stimulation of recombinant soluble guanylate cyclase (sGC) by the compounds according to the invention with and without sodium nitroprusside, and with and without the haem-dependent sGC inhibitor 1H-1,2,4-oxadiazolo[4,3a]quinoxalin-1-one (ODQ), are carried out by the method described in detail in the following reference: M. Hoenicka, E. M. Becker, H. Apeler, T. Sirichoke, H. Schroeder, R. Gerzer and J.-P. Stasch, “Purified soluble guanylyl cyclase expressed in a baculovirus/Sf9 system: Stimulation by YC-1, nitric oxide, and carbon oxide”, J. Mol. Med. 77 (1999), 14-23. The haem-free guanylate cyclase is obtained by adding Tween 20 to the sample buffer (0.5% in the final concentration).
as §1

Sequence of sGC in the CHO reporter cell (P20595 whole entry): as the sequence (P20595 whole entry) above
Sequence of sGC in the CHO reporter cell (P19686 whole entry partner): as the sequence (P19686 whole entry partner) above

| SMILES | MEC (minimum effective concentration), sGC-activating activity in the CHO reporter cell [1] | also measured |
| --- | --- | --- |
| CC(C)C(C)(CC(=O)O)c1ccc(Cl)c(NC(=O)[C@H](c2ccc(Cl)cc2)[C@@H](C)C(F)(F)F)c1 (single isomer, unassigned) [Example 3] | 0.3 nM | – |
| CC(C)C(C)(CC(=O)O)c1ccc(Cl)c(NC(=O)[C@H](c2ccc(Cl)cc2)[C@@H](C)C(F)(F)F)c1 (single isomer, unassigned) [Example 4] | 3 nM | – |
| C[C@H]([C@H](C(=O)Nc1cc(C(C)(CC(=O)O)C2CCC2)ccc1Cl)c1ccc(Cl)cc1)C(F)(F)F (single isomer, unassigned) [Example 5] | 0.3 nM | – |
| C[C@H]([C@H](C(=O)Nc1cc(C(C)(CC(=O)O)C2CCC2)ccc1Cl)c1ccc(Cl)cc1)C(F)(F)F (single isomer, unassigned) [Example 6] | 1 nM | – |
| C[C@H]([C@H](C(=O)Nc1cc(C(CC(=O)O)C2(C)CC2)ccc1Cl)c1ccc(Cl)cc1)C(F)(F)F (single isomer, unassigned) [Example 26] | 10 nM | – |
| C[C@H]([C@H](C(=O)Nc1cc(C(CC(=O)O)CC2CC2)ccc1Cl)c1ccc(Cl)cc1)C(F)(F)F (single isomer, unassigned) [Example 35] | 0.3 nM | – |
| C[C@H]([C@H](C(=O)Nc1cc(C(CC(=O)O)CC2CC2)ccc1Cl)c1ccc(Cl)cc1)C(F)(F)F (single isomer, unassigned) [Example 36] | 3 nM | – |
| CC(C)C(CC(=O)O)c1ccc(Cl)c(NC(=O)[C@H](c2ccc(Cl)cc2)[C@@H](C)C(F)(F)F)c1 (single isomer, unassigned; (+)) [Example 1] | 3 nM | – |
| CC(C)C(CC(=O)O)c1ccc(Cl)c(NC(=O)[C@H](c2ccc(Cl)cc2)[C@@H](C)C(F)(F)F)c1 (single isomer, unassigned; (+)) [Example 2] | 6.5 nM | – |
| C[C@H]([C@H](C(=O)Nc1cc(C(CC(=O)O)C2CC2)ccc1Cl)c1ccc(Cl)cc1)C(F)(F)F (single isomer, unassigned; (+)) [Example 22] | 1.8 nM | Stimulation (x-fold) of recombinant sGC, haem-containing sGC, +0.01 μM DEA/NO ([2]; 0.01 μM Example 22): 4.4 ± 1.3 x-fold; Stimulation (x-fold) of recombinant sGC, haem-containing sGC, +10 μM ODQ ([2]; 0.01 μM Example 22): 5.7 ± 1.6 x-fold; Stimulation (x-fold) of recombinant sGC, haem-containing sGC, basal ([2]; 0.01 μM Example 22): 1.6 ± 0.3 x-fold; Stimulation (x-fold) of recombinant sGC, haem-containing sGC, +0.01 μM DEA/NO ([2]; 0.1 μM Example 22): 3.4 ± 0.9 x-fold; Stimulation (x-fold) of recombinant sGC, haem-containing sGC, +10 μM ODQ ([2]; 0.1 μM Example 22): 6.1 ± 1.7 x-fold; Stimulation (x-fold) of recombinant sGC, haem-containing sGC, basal ([2]; 0.1 μM Example 22): 1.6 ± 0.5 x-fold; Stimulation (x-fold) of recombinant sGC, haem-containing sGC, +0.01 μM DEA/NO ([2]; 1.0 μM Example 22): 4.4 ± 1.4 x-fold; Stimulation (x-fold) of recombinant sGC, haem-containing sGC, +10 μM ODQ ([2]; 1.0 μM Example 22): 8.4 ± 2.2 x-fold; Stimulation (x-fold) of recombinant sGC, haem-containing sGC, basal ([2]; 1.0 μM Example 22): 2.4 ± 1.0 x-fold; Stimulation (x-fold) of recombinant sGC, haem-containing sGC, +0.01 μM DEA/NO ([2]; 10 μM Example 22): 7.8 ± 2.5 x-fold; Stimulation (x-fold) of recombinant sGC, haem-containing sGC, +10 μM ODQ ([2]; 10 μM Example 22): 18.3 ± 5.4 x-fold; Stimulation (x-fold) of recombinant sGC, haem-containing sGC, basal ([2]; 10 μM Example 22): 4.9 ± 1.2 x-fold; Effect of combination with the NO donor DEA/NO on sGC stimulation ([2]; haem-containing sGC, combination with DEA/NO): no synergistic effect; Stimulation (x-fold) of recombinant sGC, haem-free sGC, basal ([3]; 0.01 μM Example 22): 1.2 ± 0.1 x-fold; Stimulation (x-fold) of recombinant sGC, haem-free sGC, basal ([3]; 0.1 μM Example 22): 1.6 ± 0.5 x-fold; Stimulation (x-fold) of recombinant sGC, haem-free sGC, basal ([3]; 1.0 μM Example 22): 4.9 ± 1.5 x-fold; Stimulation (x-fold) of recombinant sGC, haem-free sGC, basal ([3]; 10 μM Example 22): 14.2 ± 2.0 x-fold |
| C[C@H]([C@H](C(=O)Nc1cc(C(CC(=O)O)C2CCC2)ccc1Cl)c1ccc(Cl)cc1)C(F)(F)F (single isomer, unassigned; (+)) [Example 33] | 1 nM | – |
| C[C@H]([C@H](C(=O)Nc1cc(C(CC(=O)O)C2CCC2)ccc1Cl)c1ccc(Cl)cc1)C(F)(F)F (single isomer, unassigned; (+)) [Example 34] | 10 nM | – |
| C[C@H]([C@H](C(=O)Nc1cc(C(C)(CC(=O)O)C2CC2)ccc1Cl)c1ccc(Cl)cc1)C(F)(F)F (some centres unmarked) [Example 7] | 300 nM | – |
| CCc1ccc([C@@H](C(=O)Nc2cc(C(CC(=O)O)C(C)C)ccc2Cl)[C@@H](C)C(F)(F)F)cc1 (some centres unmarked) [Example 8] | 1 nM | – |
| CC(C)C(CC(=O)O)c1ccc(Cl)c(NC(=O)[C@H](c2ccc(Cl)c(F)c2)[C@@H](C)C(F)(F)F)c1 (some centres unmarked) [Example 9] | 1 nM | – |
| CC(C)c1ccc([C@@H](C(=O)Nc2cc(C(CC(=O)O)C(C)C)ccc2Cl)[C@@H](C)C(F)(F)F)cc1 (some centres unmarked) [Example 10] | 0.3 nM | – |
| CC(C)C(CC(=O)O)c1ccc(Cl)c(NC(=O)[C@H](c2ccc(F)cc2)[C@@H](C)C(F)(F)F)c1 (some centres unmarked) [Example 11] | 3 nM | – |

| SMILES | MEC (minimum effective concentration), sGC-activating activity in the CHO reporter cell [1] | also measured |
| --- | --- | --- |
| CC(C)C(CC(=O)O)c1ccc(Cl)c(NC(=O)C(c2ccc(CC(F)(F)F)cc2)C(C)C(F)(F)F)c1 (centres unmarked) [Example 12] | 1 nM | – |
| CC(C)C(CC(=O)O)c1ccc(Cl)c(NC(=O)[C@H](c2ccc(C3CC3(F)F)cc2)[C@@H](C)C(F)(F)F)c1 (some centres unmarked) [Example 13] | 0.3 nM | – |
| CC(C)C(CC(=O)O)c1ccc(Cl)c(NC(=O)[C@H](c2ccc(C(C)(C)C)cc2)[C@@H](C)C(F)(F)F)c1 (some centres unmarked) [Example 14] | 0.3 nM | – |
| COc1cc([C@@H](C(=O)Nc2cc(C(CC(=O)O)C(C)C)ccc2Cl)[C@@H](C)C(F)(F)F)ccc1Cl (some centres unmarked) [Example 15] | 3 nM | – |
| Cc1ccc([C@@H](C(=O)Nc2cc(C(CC(=O)O)C(C)C)ccc2Cl)[C@@H](C)C(F)(F)F)cc1 (some centres unmarked) [Example 16] | 3 nM | – |
| Cc1cc([C@@H](C(=O)Nc2cc(C(CC(=O)O)C(C)C)ccc2Cl)[C@@H](C)C(F)(F)F)ccc1Cl (some centres unmarked) [Example 17] | 1 nM | – |
| CC(C)C(CC(=O)O)c1ccc(Cl)c(NC(=O)C(c2ccc(Cl)cc2)C2CCC(F)(F)C2)c1 (centres unmarked) [Example 18] | 300 nM | – |
| CC(C)C(CC(=O)O)c1ccc(Cl)c(NC(=O)C(c2ccc(Cl)cc2)C2CCC(F)(F)C2)c1 (centres unmarked) [Example 19] | 30 nM | – |
| CC(C)C(CC(=O)O)c1ccc(Cl)c(NC(=O)C(c2ccc(Cl)cc2)C2CCC(F)(F)C2)c1 (centres unmarked) [Example 20] | 1000 nM | – |
| CC(C)C(CC(=O)O)c1ccc(Cl)c(NC(=O)C(c2ccc(Cl)cc2)C2CCC(F)(F)C2)c1 (centres unmarked) [Example 21] | 10 nM | – |
| C[C@H]([C@H](C(=O)Nc1cc(C(CC(=O)O)C2CC2)ccc1Cl)c1ccc(Cl)cc1)C(F)(F)F (some centres unmarked) [Example 23] | 3 nM | – |
| COC(C)(C)C(CC(=O)O)c1ccc(Cl)c(NC(=O)[C@H](c2ccc(Cl)cc2)[C@@H](C)C(F)(F)F)c1 (some centres unmarked) [Example 25] | 10 nM | – |
| C[C@H]([C@H](C(=O)Nc1cc(C(CC(=O)O)C2(F)CC2)ccc1Cl)c1ccc(Cl)cc1)C(F)(F)F (some centres unmarked) [Example 27] | 3 nM | – |
| C[C@H]([C@H](C(=O)Nc1cc(C(CC(=O)O)C2CC(F)(F)C2)ccc1Cl)c1ccc(Cl)cc1)C(F)(F)F (some centres unmarked) [Example 28] | 30 nM | – |
| C[C@H](C(C(=O)Nc1cc(C(CC(=O)O)C2CC2(F)F)ccc1Cl)c1ccc(Cl)cc1)C(F)(F)F (stereo partly drawn) [Example 31, 3-(4-Chloro-3-{[(3R)-2-(4-chlorophenyl)-4,4,4-trifluoro-3-methylbutanoyl]amino}phenyl)-3-(2,2-difluorocyclopropyl)propanoic acid] | 3 nM | – |
| C[C@H](C(C(=O)Nc1cc(C(CC(=O)O)C2CC2(F)F)ccc1Cl)c1ccc(Cl)cc1)C(F)(F)F (stereo partly drawn) [Example 32, 3-(4-Chloro-3-{[(3R)-2-(4-chlorophenyl)-4,4,4-trifluoro-3-methylbutanoyl]amino}phenyl)-3-(2,2-difluorocyclopropyl)propanoic acid] | 3 nM | – |
